From patent US20210369680A1, “METHODS OF TREATING DISEASES AND DISORDERS RESULTING FROM BETA CORONAVIRUS INFECTION” (T3D Therapeutics, Inc., priority 2020, published 2021)
“And” between values parts separate entries of the source, which are not always exact repeats. Identical values can stand only once.

Columns and labels:
[1] = Clinical DSST in subjects with mild-to-moderate dementia (Phase 2a); type: in vivo, human
Description: Clinical DSST Data in Cognitively Impaired Subjects
DSST is a commonly used tests in clinical neuropsychology, and has been used to measure a range of cognitive functions including intact motor speed, attention, executive, and visuo-perceptual functions. Reference is made to Jaeger J. Digit Symbol Substitution Test: The Case for Sensitivity Over Specificity hi Neuropsychological Testing. J Clin Psychopharmacol. 2018; 38(5):513-519. doi:10.1097/JCP.0000000000000941, which is incorporated by reference with regard to the example. DSST scores were assessed in a randomized, parallel, 4-dose Phase 2a study in subjects with mild-to-moderate dementia (MMSE for mild 20-26, for moderate 14-19) before and after treatment with compound of Example 11. A total of 34 subjects were randomized to one of 4 doses of drug, 3 mg (n=8), 10 mg (n=9), 30 mg (n=9) or 90 mg (n=8) administered orally once-a-day for 14 days then followed-up at day 21 (7-days post-dosing discontinuation.
DSST scores are based on the number of correct substitutions in a fixed timeframe, and a higher score in the DSST denotes improvement. Data was collected at four time points for all subjects in each of the four dose groups: Prescreen (PS, one week before BL), baseline (BL), end-of-treatment (EOT) and follow-up (FU, one week after EOT). The DSST results averaged across all subjects at PS (14.1, SD=11.8) and BL (13.9, SD=12.5) were quite similar as would be expected. The larger standard deviations, and the wide range of scores (zero to 48) reflects the broad range of cognitive function in the 34 subjects in this trial. DSST averages per dose group at PS were: 3 mg, 13.88 (SD=10.83); 10 mg, 14.33 (SD=13.52); 30 mg, 18.78 (SD=14.52); and 90 mg, 8.88 (SD=6.56). The data is best described as averaged differences in individual results as it reduces variability. For all 34 subjects, the change in DSST score was −0.21 (SD=4.23) for (BL-PS), and 3.5 (SD=5.51) for (FU-EOT), with unpaired t-test p-value of 0.005. […]

[2] = Rat brain penetrance pharmacokinetics after oral dosing; type: in vivo, male Sprague-Dawley rats; details: for B/P Ratio / Brain Tissue Cone. / Plasma Conc.: individual rats; for Average (B/P Ratio): mean of 3 rats
Description: Determination of Brain to Plasma Ratios for Compound of Example 11
For compounds of the present disclosure to be effective in treating cognitive impairment, it must have an ability to cross the BBB and penetrate the brain. […] The plasma exposure as measured by AUClast was 9569±1190 hr*ng/mL.

human PPARδ = biological target: T1, human PPARδ (Homo sapiens, UniProt Q03181); test: Human PPAR activation, transient transfection study in transfected CV-1 cells; type: cell-based
T1 construct: expressed in transfected cells; host or cells: CV-1 cells
T1 sequence (Q03181 1-441): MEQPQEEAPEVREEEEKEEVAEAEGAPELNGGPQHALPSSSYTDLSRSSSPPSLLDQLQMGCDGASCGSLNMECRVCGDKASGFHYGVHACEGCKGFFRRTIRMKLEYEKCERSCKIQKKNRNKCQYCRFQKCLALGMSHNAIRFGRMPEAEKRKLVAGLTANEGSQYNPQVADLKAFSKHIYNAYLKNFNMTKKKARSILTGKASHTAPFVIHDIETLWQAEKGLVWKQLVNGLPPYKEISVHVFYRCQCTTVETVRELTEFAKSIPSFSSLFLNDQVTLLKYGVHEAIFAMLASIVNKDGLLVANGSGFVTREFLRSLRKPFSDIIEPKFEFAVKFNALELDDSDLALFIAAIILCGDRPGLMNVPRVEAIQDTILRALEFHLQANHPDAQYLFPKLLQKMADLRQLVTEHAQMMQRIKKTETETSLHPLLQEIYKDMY

[3] = Fasting plasma glucose in 2-week clinical study; type: in vivo, human; design: FPG on Day 1 / FPG on Day 14 / FPG on Day 21 / FPG Change from D 1 to D 14 / FPG Change from D 1 to D 21: unit not given here
Description: Fasting Plasma Glucose Levels for Compound 11 from a Clinical Study
FPG measured in millimoles/Liter (MMOL/L), averaged over all subjects, was lowered from day 1 to day 14. For each individual dose group day 14 FPG levels were lower than day 1 levels. […] For the two highest doses, the FPG remained lower on follow-up testing on day 21, one week after end of treatment.

CCc1oc(-c2ccc(OC)cc2)nc1CCOc1ccc2c(c1)CC[C@H]2CC(=O)[O-].[Na+] [Example 11, Sodium (S)-2-(5-(2-(5-ethyl-2-(4-methoxyphenyl)oxazol-4-yl)ethoxy)-2,3-dihydro-1H-inden-1-yl)acetate]
change in DSST score EOT-PS ([1]; 3 mg group): 0.57 | change in DSST score FU-PS ([1]; 10 mg group): 3.14 | change in DSST score (FU-EOT) ([1]; all 34 subjects): 3.5 | Brain/Plasma ratio ([2]; 1 hour, rat, oral 3 mg/kg): 0.361±0.142 | B/P Ratio ([2]; 1.0 hr): 0.36 and 0.51 and 0.22 | Brain Tissue Cone. ([2]; 1.0 hr): 161 ng/g and 101 ng/g and 226 ng/g | Plasma Conc. ([2]; 1.0 hr): 453 ng/mL and 199 ng/mL and 1020 ng/mL | Average (B/P Ratio) ([2]; 1.0 hr): 0.361 | Brain/Plasma ratio ([2]; 3 hours, rat, oral 3 mg/kg): 0.220±0.033 | B/P Ratio ([2]; 3.0 hr): 0.26 and 0.21 and 0.19 | Brain Tissue Cone. ([2]; 3.0 hr): 234 ng/g and 269 ng/g and 274 ng/g | Plasma Conc. ([2]; 3.0 hr): 1270 ng/mL and 1430 ng/mL | Average (B/P Ratio) ([2]; 3.0 hr): 0.220 | Brain/Plasma ratio ([2]; 5 hours, rat, oral 3 mg/kg): 0.171±0.011 | B/P Ratio ([2]; 5.0 hr): 0.17 and 0.18 and 0.16 | Brain Tissue Cone. ([2]; 5.0 hr): 208 ng/g and 247 ng/g and 333 ng/g | Plasma Conc. ([2]; 5.0 hr): 1260 ng/mL and 1340 ng/mL and 2040 ng/mL | Average (B/P Ratio) ([2]; 5.0 hr): 0.171 | Brain/Plasma ratio ([2]; 7 hours, rat, oral 3 mg/kg): 0.328±0.154 | B/P Ratio ([2]; 7.0 hr): 0.16 and 0.35 and 0.47 | Brain Tissue Cone. ([2]; 7.0 hr): 203 ng/g and 216 ng/g | Plasma Conc. ([2]; 7.0 hr): 1240 ng/mL and 368 ng/mL and 462 ng/mL | Average (B/P Ratio) ([2]; 7.0 hr): 0.328 | Brain/Plasma ratio ([2]; 12 hours, rat, oral 3 mg/kg): 0.350±0.077 | B/P Ratio ([2]; 12.0 hr): 0.30 and 0.44 and 0.31 | Brain Tissue Cone. ([2]; 12.0 hr): 104 ng/g and 114 ng/g and 117 ng/g | Plasma Conc. ([2]; 12.0 hr): 345 ng/mL and 259 ng/mL and 377 ng/mL | Average (B/P Ratio) ([2]; 12.0 hr): 0.350 | average plasma half-life ([2]; rat, oral 3 mg/kg): 3.33 h | plasma Cmax ([2]; rat, oral 3 mg/kg): 1547 ± 248 ng/mL | plasma exposure AUClast ([2]; rat, oral 3 mg/kg): 9569 ± 1190 ng·h/mL | Peak effect PPARδ (human PPARδ): 17.68 | greater potency in activating human PPARδ over human PPARγ (human PPARδ): 15 fold | selectivity over the human PPAR alpha subtype (human PPARδ): ~30 fold | Emax (human PPARδ; CV-1, read-out: Average % maximal response PPARδ): 76% | FPG Change from D 1 to D 14 ([3]; 3 mg): −2.2 | FPG Change from D 1 to D 21 ([3]; 3 mg): 2.5 | FPG on Day 1 ([3]; 3 mg): 94.6 | FPG on Day 14 ([3]; 3 mg): 92.4 | FPG on Day 21 ([3]; 3 mg): 97.1 | FPG Change from D 1 to D 14 ([3]; 10 mg): −3.4 | FPG Change from D 1 to D 21 ([3]; 10 mg): 0.5 | FPG on Day 1 ([3]; 10 mg): 101.4 | FPG on Day 14 ([3]; 10 mg): 98 | FPG on Day 21 ([3]; 10 mg): 101.9 | FPG Change from D 1 to D 14 ([3]; 30 mg): −4.6 | FPG Change from D 1 to D 21 ([3]; 30 mg): −0.1 | FPG on Day 1 ([3]; 30 mg): 99.2 | FPG on Day 14 ([3]; 30 mg): 94.6 | FPG on Day 21 ([3]; 30 mg): 99.1 | FPG Change from D 1 to D 14 ([3]; 90 mg): −7.0 | FPG Change from D 1 to D 21 ([3]; 90 mg): −4.7 | FPG on Day 1 ([3]; 90 mg): 101.1 | FPG on Day 14 ([3]; 90 mg): 94.1 | FPG on Day 21 ([3]; 90 mg): 96.4 | Fasting Plasma Glucose (FPG) levels ([3]; 2-week clinical study, 34 subjects): lowered as a function of dose | FPG Change from D 1 to D 14 ([3]; All subjects): −4.3 | FPG Change from D 1 to D 21 ([3]; All subjects): −1 | FPG on Day 1 ([3]; All subjects): 99.1 | FPG on Day 14 ([3]; All subjects): 94.8 | FPG on Day 21 ([3]; All subjects): 98.1
